# How the values were obtained:
# [1] = tested on: UACC 903 cells; assay: BAY 43-9006 growth inhibition/IC-50 of UACC 903 melanoma cells (SRB); format: cell-based, human; details: 72 hours; read-out: IC-50, concentration that reduced UACC 903 cell survival by half
# Procedure: To measure the growth inhibitory effects or IC-50 of BAY 43-9006 on UACC 903 cells, 5×10^3 cells/well were plated into 96-well plates. Following 24 hours, varying concentrations of BAY 43-9006 (0, 0.02, 0.1, 0.4, 1.6, 6.3, 25, or 100 uM) was added to duplicate 8-strip wells in the plate. After 72 hours of growth at 37° C. in a 5% CO2 humidified atmosphere, media was discarded and cells were fixed in 10% trichloroacetic acid. Surviving cells at each concentrations of the drug were calculated using the SRB binding assay (Stahl J M et al. Cancer Res. 63: 2881-90 (2003)).
# [2] = tested on: wild type or mutant ^V599EB-Raf protein; assay: pMek and pErk in HEK 293T cells expressing HA-tagged wild type or mutant B-Raf exposed to BAY 43-9006; format: cell-based, human; details: 5 uM, 2 hours
# Procedure: The BAY 43-9006 compound used for these studies was synthesized as described in ref (Bankston D et al. Organic Process Res Dev. 6: 777-81 (2002)). To evaluate the inhibitory effects of BAY 43-9006 on wild type and mutant B-Raf, HEK 293T cells were transfected with HA-tagged wild type B-RAF, mutant ^V599EB-RAF or vector (pcDNA3) using Calcium Phosphate as described previously (Robertson G P et al. Proc Natl Acad Sci USA. 95: 9418-23 (1998)). Following transfection (72 hours) media was replaced with DMEM media supplemented with 10% FBS and 5 uM BAY 43-9006 or DMSO vehicle. Two hours later, protein lysates were collected for Western blot analysis. Levels of phosphorylated Mek and Erk were quantified from 3 independent blots and fold differences under different conditions were estimated after normalizing against an Erk 2 loading control.
# [3] = tested on: mutant ^V599EB-Raf protein signaling; assay: pMek and pErk Western blot in UACC 903 cells with increasing BAY 43-9006; format: cell-based, human
# [4] = tested on: C8161 cells; assay: pMek and pErk levels in C8161 cells with BAY 43-9006; format: cell-based, human
# [5] = tested on: UACC 903 cells; assay: Pretreatment of mice with BAY 43-9006, UACC 903 tumor development; format: in vivo, nude mice; details: 50 mg/kg i.p.
# Procedure: (§1) Effect of BAY 43-9006 on tumor development was measured by subcutaneously injecting 5×10^6 UACC 903 or 1×10^6 1205 Lu cells into nude mice. After 6 days when a small tumor (50-100 mm^3) had developed, the mice received an intra peritoneal injection on alternate days consisting of 50 μl of vehicle (DMSO), or the drug BAY 43-9006 at concentrations of 10, 50 or 100 mg/kg body weight for UACC 903 cells and 50 mg/kg body weight for 1205 Lu cells. For studies involving pretreatment with BAY 43-9006, 50 mg/kg body weight of drug was intra peritoneally injected twice (−4 and −2 days) prior to subcutaneous injection of UACC 903 or 1205 Lu cells. The mechanism by which pharmacological inhibition of mutant ^V599EB-Raf delays tumor development was identified by comparing tumors of the same size developing in parallel. This was achieved by subcutaneous injection of 5×10^6 UACC 903 cells followed at day 6 by intra peritoneal injection every 2 days with 50 mg/kg of BAY 43-9006. For temporal and spatial matching of control DMSO with drug treated tumors, either 1×10^6, 2.5×10^6 or 5×10^6 million UACC 903 cells were subcutaneously injected and from day 6 treated intra peritoneally with DMSO vehicle every 2 days. Drug or vehicle treated tumors of the same size developing in parallel were harvested at days 9, 11, 13 and 15 for comparison. […]
# [6] = tested on: 1205 Lu cells; assay: Pretreatment of mice with BAY 43-9006, 1205 Lu tumor development; format: in vivo, nude mice; details: 50 mg/kg i.p., 1205 Lu (not shown)
# Procedure: as §1
# [7] = tested on: UACC 903 tumors; assay: BAY 43-9006 on preexisting UACC 903 tumors in nude mice; format: in vivo
# Procedure: (§2) Effect of BAY 43-9006 on tumor development was measured by subcutaneously injecting 5×10^6 UACC 903 or 1×10^6 1205 Lu cells into nude mice. After 6 days when a small tumor (50-100 mm^3) had developed, the mice received an intra peritoneal injection on alternate days consisting of 50 μl of vehicle (DMSO), or the drug BAY 43-9006 at concentrations of 10, 50 or 100 mg/kg body weight for UACC 903 cells and 50 mg/kg body weight for 1205 Lu cells. For studies involving pretreatment with BAY 43-9006, 50 mg/kg body weight of drug was intra peritoneally injected twice (−4 and −2 days) prior to subcutaneous injection of UACC 903 or 1205 Lu cells. The mechanism by which pharmacological inhibition of mutant ^V599EB-Raf delays tumor development was identified by comparing tumors of the same size developing in parallel. This was achieved by subcutaneous injection of 5×10^6 UACC 903 cells followed at day 6 by intra peritoneal injection every 2 days with 50 mg/kg of BAY 43-9006. For temporal and spatial matching of control DMSO with drug treated tumors, either 1×10^6, 2.5×10^6 or 5×10^6 […] UACC 903 cells were subcutaneously injected and from day 6 treated intra peritoneally with DMSO vehicle every 2 days. Drug or vehicle treated tumors of the same size developing in parallel were harvested at days 9, 11, 13 and 15 for comparison. At each time point, tumors from mice treated with vehicle or drug were harvested for analysis of cell proliferation, apoptosis and vascular development, as described previously (Stahl J M et al. Cancer Res. 64: 7002-10 (2004), Stahl J M et al. Cancer Res. 63: 2881-90 (2003)).
# (§3) It is currently unknown whether targeting mutant ^V599EB-Raf in established preexisting melanoma tumors could retard tumor development, and if so, whether the mechanism is the same as that occurring when targeting ^V599EB-Raf in cells prior to tumor formation. Therefore, we next examined whether pharmacologically targeting B-Raf in preexisting melanoma tumors would inhibit tumor development by a similar mechanism. Five million UACC 903 cells, one million 1205 Lu cells or five million C8161 cells were subcutaneously injected into 4- to 6-week old female nude mice. On day 6, vehicle (DMSO) or BAY 43-9006 compound dissolved in vehicle (10, 50 or 100 mg/kg) was administered to mice via intra peritoneal injection every 48 hours. A 48 hour time period between drug administrations was chosen since inhibitory effects on the MAP kinase signaling pathway in UACC 903, 1205 Lu and C8161 cells persisted for at least that period (data not shown). Size of the developing tumors was measured using calipers on alternate days and the results are shown for UACC 903 cells in FIG. 4A and 1205 Lu cells in FIG. 15B. While all concentrations of the BAY 43-9006 compound slowed UACC 903 tumor development, only concentrations ≧50 mg/kg caused tumor development to plateau 7 days following the start of treatment (FIG. 4B).
# [8] = tested on: 1205 Lu tumors; assay: BAY 43-9006 on preexisting 1205 Lu tumors in nude mice; format: in vivo; details: 50 mg/kg
# Procedure: as §1, with “43-9006.” for “43-9006. For temporal and spatial matching of control DMSO with drug treated tumors, either 1×10^6, 2.5×10^6 or 5×10^6 million UACC 903 cells were subcutaneously injected and from day 6 treated intra peritoneally with DMSO vehicle every 2 days. Drug or vehicle treated tumors of the same size developing in parallel were harvested at days 9, 11, 13 and 15 for comparison.”
# It is currently unknown whether targeting mutant ^V599EB-Raf in established preexisting melanoma tumors could retard tumor development, and if so, whether the mechanism is the same as that occurring when targeting ^V599EB-Raf in cells prior to tumor formation. […] Size of the developing tumors was measured using calipers on alternate days and the results are shown for UACC 903 cells in FIG. 4A and 1205 Lu cells in FIG. 15B. […]
# [9] = tested on: C8161 cells; assay: BAY 43-9006 on preexisting C8161 tumors in nude mice; format: in vivo; details: C8161 (data not shown)
# From the text: as §3
# [10] = tested on: phosphorylated Erk; assay: In vivo pErk measurements in UACC 903 tumor sections (immunohistochemistry); design: species or system nude mice; details: 50 mg/kg, 9 days after start of treatment
# Procedure: To quantitate changes in pErk levels in formalin-fixed, paraffin-embedded tumor sections, antigen retrieval was performed with 0.01 M citrate buffer at pH 6.0 for 20 minutes in a 95° C. water bath. Slides were cooled for 20 minutes, rinsed in PBS and then incubated in 3% H2O2 for 10 minutes to quench endogenous peroxidase activity. Next, sections were blocked with 1% BSA for 30 minutes and incubated with anti-pERK antibody at a 1:100 dilution (Cell Signaling Technologies, Beverly, Mass.) overnight at 4° C. Following rinsing in PBS, sections were incubated with biotinylated anti rabbit IgG for 1 hour, rinsed again in PBS, and incubated with peroxidase labeled streptavidine for 30 minutes. […] The average percentage of cells±SEM that stained positive for pErk was counted from a minimum of 6 different tumors with 4-6 fields counted per tumor.
# To confirm that the BAY 43-9006 compound affected activity of the mutant ^V599EB-Raf signaling pathway in tumors, the percentage of cells expressing elevated levels of phosphorylated Erk was scored in tumors from mice 9 days after start of treatment with vehicle (DMSO) or vehicle containing 50 mg/kg BAY 43-9006 (FIG. 15C).
# [11] = tested on: UACC 903 tumors; assay: Apoptosis, cell proliferation and vessel density in size- and time-matched UACC 903 tumors treated with BAY 43-9006; format: in vivo, nude mice
# Procedure: as §2
# Apoptosis measurements on formalin-fixed, paraffin-embedded tumor sections were undertaken using the TUNEL TMR Red Apoptosis kit from Roche (Manheim, Germany), as described previously (Stahl J M et al. Cancer Res. 64: 7002-10 (2004), Stahl J M et al. Cancer Res. 63: 2881-90 (2003)). Cell Proliferation rates in formalin-fixed tumor sections were measured using the RPN 20 cell proliferation kit (Amersham Biosciences, Piscataway, N.J.) that utilizes BrdU incorporation and immunocytochemistry. […] The number of BrdU stained cells were scored as the percentage of total cells of tumors treated with BAY 43-9006 or vehicle (DMSO). Quantification of vessels density using a purified rat anti-mouse CD31 (PECAM-1) monoclonal antibody (Pharmingen, San Diego, Calif.) has been described previously (Stahl J M et al. Cancer Res. 64: 7002-10 (2004), Stahl J M et al. Cancer Res. 63: 2881-90 (2003)). The proportional area of the tumors occupied by the vessels over the total area was calculated using the IP Lab imaging software program. For all tumor analyses, a minimum of 6 different tumors with 4-6 fields per tumor was analyzed and results represented as the average±SEM.
# [12] = tested on: VEGF; assay: VEGF secretion ELISA, UACC 903 or 1205 Lu cells; format: cell-based, human; details: BAY 43-9006 5, 10, 15 uM; UACC 903 and 1205 Lu
# Procedure: To determine the amount of VEGF secreted by cells following siRNA-mediated knockdown of B-Raf protein or after treatment with BAY 43-9006, the human VEGF Quantikine kit (DVE00) was used (R&D Systems Inc., Minneapolis, Minn.). UACC 903 or 1205 Lu cells (5×10^5) nucleofected with the various siRNA were plated in 60 mm petri dishes and 24 hours later media replaced with DMEM containing 2% FBS. Following an additional 24 hours, media was again replaced and conditioned media for ELISA analysis was collected 24 and 48 hours later. For BAY 43-9006 studies. 3×10^5 UACC 903 or 1205 Lu cells were plated into 60 mm petri dishes and 24 hours later media was changed to DMEM containing 2% FBS. After an additional 24 hours, media was replaced with DMEM supplemented with 2% FBS alone or in combination with BAY 43-9006 (5, 10, 15 uM) or DMSO vehicle. After 12 or 24 hours, conditioned media was collected for ELISA analysis. The media was cleared by centrifugation at 14,000 rpm (4° C.) for 5 minutes and stored at −80° C. VEGF ELISA analysis was performed in triplicate on duplicate experiments according to the manufacturer's instructions.
# [13] = tested on: advanced stage melanoma; details: cited from earlier work
structure (smiles),measurement,setting,value
CNC(=O)c1cc(Oc2ccc(NC(=O)Nc3ccc(Cl)c(C(F)(F)F)c3)cc2)ccn1 [BAY 43-9006],IC50,[1],5 to 6 µM
same,Fold reduction of phosphorylated Erk,[2],3-4 fold
same,Fold reduction of phosphorylated Mek,[2],5-6 fold
same,Persistence of inhibitory effects on MAP kinase signaling,[3]; UACC 903 and 1205 Lu cell lines,2 to 3 days
same,Levels of phosphorylated (active) Mek and Erk,"[3]; UACC 903 cells, 2 hours, increasing concentrations",dose responsive manner
same,pMek and pErk levels,[4],inhibited
same,Tumor development after pretreatment,[5],significantly inhibited
same,Tumor development after pretreatment,[6],significantly inhibited
same,Tumor size on day 27,[7]; 10 mg/kg,"> 2,400 mm^3"
same,Delay of tumor development,[7]; 10 mg/kg i.p. every 48 hours,~1 week
same,Increase in tumor sizes from days 13-to-31,"[7]; UACC 903, after a week of drug treatment",no statistically significant increase
same,"Tumor development plateau, days following the start of treatment",[7]; concentrations ≧50 mg/kg,7 days
same,Concentrations that reduce the tumorigenic potential of melanoma cells containing mutant ^V599EB-Raf,[7]; i.p. every 2 days from day 6,≥ 50 mg/kg
same,"Plateau in tumor size, days",[8],17-to-31 days
same,Kinetics of tumor formation,[9],no difference
same,Fold fewer pErk positive cells than vehicle treated tumors,[10],~3 fold
same,Tumor area occupied by apoptosis by day 15,[11]; 50 mg/kg,up to 25%
same,Vessel development at day 9 vs vehicle,[11]; 50 mg/kg,statistically significant difference
same,Tumor area undergoing apoptosis by day 20,[11]; 50 mg/kg (data not shown),~50%
same,Decrease in percentage of proliferating cells,"[11]; preexisting tumors, 50 mg/kg",32-57%
same,VEGF secretion,[12],dose dependent manner
same,Efficacy of monotherapy,"[13]; advanced stage melanoma patients, oral",relatively ineffective
same,Response rate in patients,[13]; in combination with paclitaxel and carboplatinum,50%
